# Results: ChEMBL document CHEMBL4715790, “An Unusual Binding Model of the Methyl 9-Anilinothiazolo[5,4-f] quinazoline-2-carbimidates (EHT 1610 and EHT 5372) Confers High Selectivity for Dual-Specificity Tyrosine Phosphorylation-Regulated Kinases” (J Med Chem, 2016)
# Assays:
# [1] = target: T1, Dual specificity protein kinase CLK1 (Homo sapiens, UniProt P49759); experiment: Binding affinity to CLK1 (unknown origin) assessed as change in melting temperature of protein at 10 uM by Sypro-orange dye based DSF assay
# Target sequence in this assay (P49759 whole entry, looked up): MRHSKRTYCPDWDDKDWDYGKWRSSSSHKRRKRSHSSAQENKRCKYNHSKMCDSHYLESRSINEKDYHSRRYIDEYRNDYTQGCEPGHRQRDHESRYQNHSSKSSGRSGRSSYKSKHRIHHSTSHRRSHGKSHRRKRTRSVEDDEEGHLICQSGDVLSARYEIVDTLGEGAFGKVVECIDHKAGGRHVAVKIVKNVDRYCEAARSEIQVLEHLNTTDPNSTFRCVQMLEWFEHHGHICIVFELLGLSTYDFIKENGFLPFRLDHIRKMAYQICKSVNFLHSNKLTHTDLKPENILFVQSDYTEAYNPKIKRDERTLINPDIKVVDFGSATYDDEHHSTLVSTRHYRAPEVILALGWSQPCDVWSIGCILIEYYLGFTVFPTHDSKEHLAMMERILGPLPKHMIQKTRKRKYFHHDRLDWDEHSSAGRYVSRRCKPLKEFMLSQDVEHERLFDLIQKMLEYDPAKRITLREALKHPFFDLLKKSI
# [2] = target: Dual specificity protein kinase CLK2 (Homo sapiens, UniProt P49760); experiment: Inhibition of CLK2 (unknown origin)
# Sequence of Dual specificity protein kinase CLK2 (P49760 whole entry): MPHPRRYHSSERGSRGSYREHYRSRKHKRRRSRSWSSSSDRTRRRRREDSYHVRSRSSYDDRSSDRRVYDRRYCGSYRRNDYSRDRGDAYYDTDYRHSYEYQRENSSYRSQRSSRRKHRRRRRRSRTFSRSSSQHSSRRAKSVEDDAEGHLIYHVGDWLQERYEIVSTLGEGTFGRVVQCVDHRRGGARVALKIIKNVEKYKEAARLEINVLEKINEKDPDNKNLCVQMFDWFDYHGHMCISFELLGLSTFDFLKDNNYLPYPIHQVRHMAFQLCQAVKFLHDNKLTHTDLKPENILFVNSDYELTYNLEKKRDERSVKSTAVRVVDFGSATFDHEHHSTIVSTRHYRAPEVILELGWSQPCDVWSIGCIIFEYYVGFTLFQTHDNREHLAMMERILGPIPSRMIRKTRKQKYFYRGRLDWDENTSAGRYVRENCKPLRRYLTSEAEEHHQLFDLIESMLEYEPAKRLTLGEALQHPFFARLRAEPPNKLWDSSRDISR
# [3] = target: Dual specificity protein kinase CLK3 (Homo sapiens, UniProt P49761); experiment: Inhibition of CLK3 (unknown origin)
# Sequence of Dual specificity protein kinase CLK3 (P49761 whole entry): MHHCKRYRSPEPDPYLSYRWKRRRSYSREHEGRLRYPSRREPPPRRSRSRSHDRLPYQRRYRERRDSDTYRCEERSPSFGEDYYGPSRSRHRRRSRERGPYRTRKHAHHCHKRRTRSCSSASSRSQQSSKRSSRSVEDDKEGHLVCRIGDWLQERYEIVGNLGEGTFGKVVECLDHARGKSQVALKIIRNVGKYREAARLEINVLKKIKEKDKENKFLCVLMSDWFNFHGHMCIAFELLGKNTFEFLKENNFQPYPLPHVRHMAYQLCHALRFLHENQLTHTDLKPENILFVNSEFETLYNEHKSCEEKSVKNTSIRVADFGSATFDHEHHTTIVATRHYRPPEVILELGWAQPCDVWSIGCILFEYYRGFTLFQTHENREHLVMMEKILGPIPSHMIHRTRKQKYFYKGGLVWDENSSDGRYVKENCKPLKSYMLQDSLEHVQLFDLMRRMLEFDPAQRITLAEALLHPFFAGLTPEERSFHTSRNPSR
# [4] = target: T1, Dual specificity protein kinase CLK1; experiment: Inhibition of CLK1 (unknown origin)
# Target sequence in this assay (P49759 whole entry): as the sequence (P49759 whole entry, looked up) above
# [5] = target: T2, Dual specificity tyrosine-phosphorylation-regulated kinase 3 (Homo sapiens, UniProt O43781); experiment: Inhibition of DYRK3 (unknown origin)
# T2 sequence (O43781 whole entry): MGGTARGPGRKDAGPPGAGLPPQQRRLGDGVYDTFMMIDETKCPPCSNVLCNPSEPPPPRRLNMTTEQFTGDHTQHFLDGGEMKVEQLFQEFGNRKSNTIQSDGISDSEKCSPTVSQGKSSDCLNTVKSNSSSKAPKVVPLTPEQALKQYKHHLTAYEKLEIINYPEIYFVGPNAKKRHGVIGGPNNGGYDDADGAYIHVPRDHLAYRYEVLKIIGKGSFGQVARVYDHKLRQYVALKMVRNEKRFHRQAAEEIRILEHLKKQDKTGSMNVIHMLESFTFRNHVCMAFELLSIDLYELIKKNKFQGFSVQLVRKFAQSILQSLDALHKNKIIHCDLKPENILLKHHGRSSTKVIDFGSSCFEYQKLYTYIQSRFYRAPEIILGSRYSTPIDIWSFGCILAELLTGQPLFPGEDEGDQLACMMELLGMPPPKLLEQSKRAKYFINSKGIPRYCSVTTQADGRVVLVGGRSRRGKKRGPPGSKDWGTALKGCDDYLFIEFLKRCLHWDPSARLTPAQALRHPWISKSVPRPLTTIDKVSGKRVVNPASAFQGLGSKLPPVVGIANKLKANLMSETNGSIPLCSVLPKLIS
# [6] = target: Dual specificity tyrosine-phosphorylation-regulated kinase 1A (Homo sapiens) (UniProt Q13627); experiment: Binding affinity to 6x-His-tagged DYRK1A (unknown origin) assessed as change in melting temperature of protein at 10 uM by Sypro-orange dye based DSF assay
# [7] = target: T3, Dual specificity tyrosine-phosphorylation-regulated kinase 2 (Homo sapiens, UniProt Q92630); experiment: Inhibition of DYRK2 (unknown origin)
# T3 sequence (Q92630 whole entry): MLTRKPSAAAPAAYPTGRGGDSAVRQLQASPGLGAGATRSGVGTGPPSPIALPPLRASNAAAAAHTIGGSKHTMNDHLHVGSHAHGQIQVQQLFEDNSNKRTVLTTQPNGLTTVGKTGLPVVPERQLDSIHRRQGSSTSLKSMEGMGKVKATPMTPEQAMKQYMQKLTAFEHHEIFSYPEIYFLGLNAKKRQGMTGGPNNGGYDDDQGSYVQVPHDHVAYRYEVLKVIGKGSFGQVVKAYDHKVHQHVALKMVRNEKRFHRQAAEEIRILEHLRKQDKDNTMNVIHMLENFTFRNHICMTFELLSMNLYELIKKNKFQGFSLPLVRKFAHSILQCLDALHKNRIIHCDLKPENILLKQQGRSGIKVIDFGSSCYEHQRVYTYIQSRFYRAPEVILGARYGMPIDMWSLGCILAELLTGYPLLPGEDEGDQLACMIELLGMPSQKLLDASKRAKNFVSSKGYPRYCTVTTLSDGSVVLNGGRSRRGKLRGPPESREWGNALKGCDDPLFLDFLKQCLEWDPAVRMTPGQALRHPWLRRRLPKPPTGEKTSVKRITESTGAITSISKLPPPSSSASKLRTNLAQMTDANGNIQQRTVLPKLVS
# [8] = target: Dual specificity protein kinase CLK4 (Homo sapiens, UniProt Q9HAZ1); experiment: Inhibition of CLK4 (unknown origin)
# Sequence of Dual specificity protein kinase CLK4 (Q9HAZ1 whole entry): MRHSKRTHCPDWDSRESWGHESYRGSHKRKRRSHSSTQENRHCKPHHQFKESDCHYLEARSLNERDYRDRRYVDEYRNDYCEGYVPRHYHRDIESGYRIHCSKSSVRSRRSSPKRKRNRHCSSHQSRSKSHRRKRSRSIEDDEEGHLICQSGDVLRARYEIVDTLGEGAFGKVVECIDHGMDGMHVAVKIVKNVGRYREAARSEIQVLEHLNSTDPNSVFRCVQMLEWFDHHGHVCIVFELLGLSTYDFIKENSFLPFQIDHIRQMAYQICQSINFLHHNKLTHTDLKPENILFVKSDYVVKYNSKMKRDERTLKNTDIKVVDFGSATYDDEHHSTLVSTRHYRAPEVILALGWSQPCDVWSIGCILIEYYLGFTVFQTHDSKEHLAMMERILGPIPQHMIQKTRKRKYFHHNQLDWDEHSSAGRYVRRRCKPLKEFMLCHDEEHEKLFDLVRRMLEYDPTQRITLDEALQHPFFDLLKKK
# [9] = target: T4, Dual specificity tyrosine-phosphorylation-regulated kinase 4 (Homo sapiens, UniProt Q9NR20); experiment: Inhibition of DYRK4 (unknown origin)
# T4 sequence (Q9NR20 whole entry): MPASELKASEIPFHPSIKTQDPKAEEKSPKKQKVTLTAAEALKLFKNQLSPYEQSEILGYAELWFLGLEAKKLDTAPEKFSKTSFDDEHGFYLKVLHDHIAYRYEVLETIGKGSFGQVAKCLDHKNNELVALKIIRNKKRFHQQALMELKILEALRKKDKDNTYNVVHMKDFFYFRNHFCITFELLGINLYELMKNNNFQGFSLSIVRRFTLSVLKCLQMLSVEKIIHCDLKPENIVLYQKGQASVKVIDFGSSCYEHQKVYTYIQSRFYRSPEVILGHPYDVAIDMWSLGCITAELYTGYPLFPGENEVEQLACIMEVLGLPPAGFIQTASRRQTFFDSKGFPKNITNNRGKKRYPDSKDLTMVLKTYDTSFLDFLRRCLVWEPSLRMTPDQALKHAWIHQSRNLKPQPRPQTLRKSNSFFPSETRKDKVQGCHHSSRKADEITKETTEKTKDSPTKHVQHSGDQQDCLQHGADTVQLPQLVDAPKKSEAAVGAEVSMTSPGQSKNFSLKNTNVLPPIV
# [10] = target: Glycogen synthase kinase-3 alpha (Homo sapiens, UniProt P49840); experiment: Inhibition of GSK3A (unknown origin)
# Sequence of Glycogen synthase kinase-3 alpha (P49840 whole entry): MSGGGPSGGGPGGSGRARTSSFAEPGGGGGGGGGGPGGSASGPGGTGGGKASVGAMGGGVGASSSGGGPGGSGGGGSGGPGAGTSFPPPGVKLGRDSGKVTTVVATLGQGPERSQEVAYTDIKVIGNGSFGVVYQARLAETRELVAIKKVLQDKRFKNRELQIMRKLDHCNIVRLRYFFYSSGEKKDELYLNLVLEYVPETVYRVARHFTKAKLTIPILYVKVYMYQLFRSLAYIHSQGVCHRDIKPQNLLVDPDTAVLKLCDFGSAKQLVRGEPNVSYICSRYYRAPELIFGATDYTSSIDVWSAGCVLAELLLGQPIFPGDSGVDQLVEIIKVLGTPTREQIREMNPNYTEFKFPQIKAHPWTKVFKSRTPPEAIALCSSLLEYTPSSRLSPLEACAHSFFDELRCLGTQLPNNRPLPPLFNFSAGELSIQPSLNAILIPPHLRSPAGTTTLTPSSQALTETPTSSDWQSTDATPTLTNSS
# [11] = target: T5, Glycogen synthase kinase-3 beta (Homo sapiens, UniProt P49841); experiment: Binding affinity to GSK3B (unknown origin) assessed as change in melting temperature of protein at 10 uM by Sypro-orange dye based DSF assay
# Target sequence in this assay (P49841 whole entry, looked up): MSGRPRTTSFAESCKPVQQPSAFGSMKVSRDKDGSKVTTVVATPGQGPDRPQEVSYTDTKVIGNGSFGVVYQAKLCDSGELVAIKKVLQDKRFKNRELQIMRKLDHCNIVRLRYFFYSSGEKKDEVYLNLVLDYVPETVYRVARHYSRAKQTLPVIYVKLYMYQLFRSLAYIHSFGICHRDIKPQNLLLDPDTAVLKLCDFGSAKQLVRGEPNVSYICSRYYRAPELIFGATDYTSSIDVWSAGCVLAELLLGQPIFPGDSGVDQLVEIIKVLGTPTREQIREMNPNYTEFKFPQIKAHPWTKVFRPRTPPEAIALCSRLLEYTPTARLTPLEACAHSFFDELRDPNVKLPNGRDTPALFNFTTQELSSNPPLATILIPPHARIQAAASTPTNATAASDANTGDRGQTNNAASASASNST
# [12] = target: T6, Dual specificity tyrosine-phosphorylation-regulated kinase 2 (Homo sapiens) (UniProt Q92630); experiment: Binding affinity to DYRK2 (unknown origin) assessed as change in melting temperature of protein at 10 uM by Sypro-orange dye based DSF assay
# T6 sequence (whole entry): T3 sequence (Q92630 whole entry)
# [13] = target: T5, Glycogen synthase kinase-3 beta; experiment: Inhibition of GSK3B (unknown origin)
# Target sequence in this assay (P49841 whole entry): as the sequence (P49841 whole entry, looked up) above
ΔTm [1] [°C],IC50 [2] [nM],IC50 [3] [nM],IC50 [4] [nM],IC50 [5] [nM],ΔTm [6] [°C],IC50 [7] [nM],IC50 [8] [nM],IC50 [9],IC50 [10] [nM],ΔTm [11] [°C],ΔTm [12] [°C],IC50 [13] [nM],IC50 ([9]; read-out: IC50) [nM],Compound
5,88.8,> 10000,22.8,93.2,9,10.8,59,Not Active,7.44,5,5,221,,COC(=N)c1nc2ccc3ncnc(Nc4ccc(Cl)cc4Cl)c3c2s1
5,32.5,1420,11,21.1,9,3.16,32,,9.11,5,5,143,1570,COC(=N)c1nc2ccc3ncnc(Nc4ccc(OC)cc4F)c3c2s1
